In PubChem BioAssay (NCI):
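Briefly, cells in 96-well plates were exposed to five compound concentrations for 48 h, and endpoints were estimated by linear interpolation. Abbreviation: GI50, concentration required for 50% inhibition of growth. At the TGI there is no net growth.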

Assays:
Assay in all cases: NCI tumour cell line growth inhibition, 48 h
A549 NSCLC = system: A549 NSCLC
CAKI-1 renal = system: CAKI-1 renal
HL-60(TB) leukemia = system: HL-60(TB) leukemia
HOP-62 NSCLC = system: HOP-62 NSCLC
IGROV1 ovarian = system: IGROV1 ovarian
LOX IMVI melanoma = system: LOX IMVI melanoma
MCF7 breast = system: MCF7 breast
NCI-H226 lung = system: NCI-H226 lung
SK-MEL-28 melanoma = system: SK-MEL-28 melanoma
UO-31 renal = system: UO-31 renal
SNB-78 CNS = system: SNB-78 CNS

Row | SMILES | TGI (A549 NSCLC) [µM] | TGI (CAKI-1 renal) [µM] | TGI (HL-60(TB) leukemia) [µM] | TGI (HOP-62 NSCLC) [µM] | TGI (IGROV1 ovarian) [µM] | TGI (LOX IMVI melanoma) [µM] | TGI (MCF7 breast) [µM] | TGI (NCI-H226 lung) [µM] | TGI (SK-MEL-28 melanoma) [µM] | TGI (UO-31 renal) [µM] | TGI (SNB-78 CNS) [µM] | GI50 (A549 NSCLC) [µM] | GI50 (CAKI-1 renal) [µM] | GI50 (HL-60(TB) leukemia) [µM] | GI50 (HOP-62 NSCLC) [µM] | GI50 (IGROV1 ovarian) [µM] | GI50 (LOX IMVI melanoma) [µM] | GI50 (MCF7 breast) [µM] | GI50 (NCI-H226 lung) [µM] | GI50 (SK-MEL-28 melanoma) [µM]
1 | C[Si](C)(OCCS(=O)(=O)O)C1(Cc2cccc3ccccc23)S(=O)(=O)OCCOS1(=O)=O | 65.2 | 31.4 | 51.8 | 45 | 36.3 | 34 | 39.5 | 45.8 | 37 | 32.4 |  |  |  |  |  |  |  |  |  | 
2 | COc1ccc(-n2cnnc2-c2nsc3ccccc23)cc1 | > 100 |  | > 100 | > 100 | > 100 | > 100 |  |  | > 100 | > 100 | > 100 |  |  |  |  |  |  |  |  | 
3 | CC(C)OP(=O)(OC(C)C)/C(I)=N/Nc1ccc([N+](=O)[O-])cc1 | > 100 | > 100 | > 100 | > 100 | > 100 |  |  |  | > 100 | > 100 | > 100 |  |  |  |  |  |  |  |  | 
4 | CC(NC(=O)C(C)NC(=O)C(N)CCP(C)(=O)O)C(=O)O (centres undefined) | > 100 | > 100 | > 100 | > 100 | > 100 | > 100 | > 100 | > 100 | > 100 | > 100 | > 100 |  |  |  |  |  |  |  |  | 
5 | Nc1nc(SCc2ccc([N+](=O)[O-])cc2)nc2c1ncn2C1OC(COP(=O)(O)O)C(O)C1O (centres undefined) | > 100 |  | > 100 | > 100 | > 100 | > 100 |  | > 100 | > 100 |  | > 100 |  |  |  |  |  |  |  |  | 
6 | Cc1ccc(N=N/C(=N\NC(=O)c2ccc(C)cc2)c2ccc(N(CCC#N)CCC#N)cc2C)cc1 | > 100 | > 100 | > 100 | > 100 | 60.6 | > 100 | > 100 | > 100 | 52.5 | > 100 |  |  |  |  |  |  |  |  |  | 
7 | CCOP(=O)(OCC)/C(C#N)=C/c1cn(C)cn1 | > 100 | > 100 |  | > 100 | > 100 |  | > 100 | > 100 | > 100 | > 100 |  |  |  |  |  |  |  |  |  | 
8 | CC1=Nc2nc(Cl)cn2C(=O)C1(Cl)Cl | > 10 | > 10 | > 10 | > 10 | > 10 | > 10 | > 10 | > 10 | > 10 | > 10 |  |  |  |  |  |  |  |  |  | 
9 | N[C@H](C(=O)O)[C@H]1ON=C(Cl)[C@@H]1O | > 550 | 205 | 222 | 78.2 | > 309 | > 550 | > 550 | > 550 | > 550 | 441 | > 550 | 3.79 | 4.06 | 13.1 | 16 | 7.86 | 1.54 | 0.374 | 61.8 | 28.4
10 | Cc1ccc(N2Cc3c(ccc4ccccc34)OP2(=O)Oc2ccc(Cl)c(C)c2)cc1 (centres undefined) | > 100 | > 100 | > 100 | > 100 | > 100 | > 100 | > 100 | > 100 | > 100 | > 100 | > 100 |  |  |  |  |  |  |  |  | 
